In article PMC9774238, “In Vitro Antifungal Activity of Chimeric Peptides Derived from Bovine Lactoferricin and Buforin II against Cryptococcus neoformans var. grubii” (Antibiotics, 2022):
Converted amounts (≈) assume the structure as drawn. Read-outs that look alike come from different tables or passages of the source. Non-standard residues stand in square brackets, D forms with d. Residues, ends and D or L forms follow the SMILES beside them. No end group written: not given here. Ahx = NCCCCCC(=O)O

Columns and labels:
[1] = test system: C. neoformans var. grubii strains; type: cell-based, Cryptococcus neoformans var. grubii; details: 72 h
Description: (§1) The in vitro susceptibility of chimeric, precursor peptides and FLC was evaluated by determining the minimal inhibitory concentration (MIC) on the basis of the broth microdilution method, according to document M27-A3 of the Clinical Laboratory Standards Institute (CLSI). It was diluted in RPMI-1640 medium (Sigma-Aldrich) at concentrations ranging from 1.6 to 100 μg/mL. The initial suspension (0.5 McFarland) was mixed into saline solution. Subsequently, a 1:50 dilution in saline solution and a 1:20 dilution in RPMI-1640 were tested (0.5–2.5 × 10^3 cells/mL). The negative control was the medium only without inoculum, and the positive control was the medium plus inoculum. The incubation time was 72 h at 30 °C at 110 rpm. The MIC values were determined by measuring the absorbance at 595 nm in a microplate reader and were defined as the lowest concentration of peptides capable of inhibiting growth equal to or higher than 50% in relation to the positive control. The MIC for fluconazole (FLC; 0.125–64 μg/mL; Pfizer, Brazil) was also determined according to M27-A3. The lowest concentration of the antifungal agent that was able to inhibit growth by 50% with respect to the positive control was considered the MIC.

[2] = test system: C. neoformans var. grubii strains; type: cell-based, Cryptococcus neoformans var. grubii; details: 74 h
Description: (§2) The minimal fungicidal concentration (MFC) was evaluated after the yeast’s exposure to the chimeras (1.6 to 100 μg/mL), as described above. […] The MFC was defined as the lowest peptide concentration at which ≤1 colony was visible on the agar plate.

[3] = test system: C. neoformans 2807 clinical isolate; experiment: microbe, parasite or virus in culture; type: cell-based, Cryptococcus neoformans var. grubii; details: 72 h; for MICa (MIC of the chimeric peptide alone): 2807 clinical isolate
Description: (§3) The combined effect of FLC with the chimeric peptides was evaluated for the reference strain and one clinical isolate. The amounts of 50 µL of the chimeric peptide and 50 µL of antifungal (FLC) were added to the plates at final concentrations of: 2xMIC, MIC, 1/2xMIC, 1/4xMIC, 1/6xMIC, and 1/8xMIC. A yeast cell suspension was added at 0.5–2.5 × 10^3 cells/mL in 96-well plates. It was incubated for 72 h with shaking at 110 rpm and at 30 °C.
(§4) The effect of the combination of the two drugs was determined by calculating the fractional inhibitory concentration index (∑FIC), which was calculated as follows: ∑FIC = (MICcombined/MICalone) FLC + (MICcombined/MICalone) peptide.
(§5) FIC values ≤0.5 was considered as synergistic effect, 0.5 < FIC < 1 an additive effect, 1 < FIC < 4 indifference, and FIC ≥ 4 an antagonistic effect.

C. neoformans H99 = experiment: microbe, parasite or virus in culture; type: cell-based, Cryptococcus neoformans var. grubii; details: for MICa (MIC of the chimeric peptide alone): H99, 72 h
Description: as §3, §4, §5

[4] = test system: L929 murine fibroblast cells; type: cell-based, mouse; details: 2 h
Description: The cell line used for this approach was the mouse fibroblast L929. The cells were washed with saline solution, trypsinized, and incubated for 5 min at 37 °C with a 5% CO2 atmosphere. The fibroblast cell suspension was prepared at a concentration of 1 × 10^6 cells in 7 mL of RPMI medium supplemented with fetal bovine serum (the number of cells needed for one plate) and dispensed into 96-well plates. Then, 70 µL of cells was added per well and incubated overnight at 37 °C and 5% CO2. Dilutions of each peptide chimera (3.125–200 µg/mL) were formulated, and 50 µL of each were added to the plate in quadruplicate and incubated for 2 h at 37 °C and 5% CO2. Control wells consisted of untreated cell cultures. In addition, 10 µL of MTT was added to each of the wells, and the plate was incubated for 4 h at 37 °C with a 5% CO2 atmosphere. Following that, the total volume of each well was withdrawn, 100 µL of DMSO was added, and it was incubated for 40 min at 37 °C with 5% CO2.
Plates were read with an iMark™ microplate reader (Bio-rad, Hercules, CA, USA) measuring the absorbance at 595 nm. Wells of untreated fibroblast cells were considered to be the negative control.

[5] = test system: C. neoformans var. grubii mutant CNAG_01580; experiment: MIC, broth microdilution (CLSI M27-A3); type: cell-based, Cryptococcus neoformans var. grubii; details: Cryptococcus neoformans, 72 h
Description: as §1

[6] = test system: C. neoformans var. grubii mutant CNAG_02050; experiment: MIC, broth microdilution (CLSI M27-A3); type: cell-based, Cryptococcus neoformans var. grubii; details: Cryptococcus neoformans, 72 h
Description: as §1

[7] = test system: C. neoformans var. grubii mutant CNAG_04804; experiment: MIC, broth microdilution (CLSI M27-A3); type: cell-based, Cryptococcus neoformans var. grubii; details: Cryptococcus neoformans, 72 h
Description: as §1

[8] = test system: C. neoformans var. grubii mutant CNAG_05150; experiment: MIC, broth microdilution (CLSI M27-A3); type: cell-based, Cryptococcus neoformans var. grubii; details: Cryptococcus neoformans, 72 h
Description: as §1

[9] = test system: C. neoformans var. grubii mutant CNAG_00730; experiment: MIC, broth microdilution (CLSI M27-A3); type: cell-based, Cryptococcus neoformans var. grubii; details: Cryptococcus neoformans, 72 h
Description: as §1

[10] = test system: C. neoformans var. grubii mutant CNAG_02915; experiment: MIC, broth microdilution (CLSI M27-A3); type: cell-based, Cryptococcus neoformans var. grubii; details: Cryptococcus neoformans, 72 h
Description: as §1

[11] = test system: C. neoformans var. grubii mutant CNAG_04693; experiment: MIC, broth microdilution (CLSI M27-A3); type: cell-based, Cryptococcus neoformans var. grubii; details: Cryptococcus neoformans, 72 h
Description: as §1

[12] = test system: C. neoformans var. grubii mutant CNAG_06925; experiment: MIC, broth microdilution (CLSI M27-A3); type: cell-based, Cryptococcus neoformans var. grubii; details: Cryptococcus neoformans, 72 h
Description: as §1

[13] = test system: mutants of C. neoformans var. grubii; experiment: MIC, mutants (summary statements); type: cell-based, Cryptococcus neoformans var. grubii; details: all mutants
Description: as §1

[14] = test system: C. neoformans var. grubii H99; experiment: Fluorescent staining for yeast viability (LIVE/DEAD, FUN1 and calcofluor white); type: cell-based, Cryptococcus neoformans var. grubii; details: 72 h
Description: Since the antifungal activity of the two chimeras was similar, it was decided to evaluate cell viability in the reference strain using one of the two chimeras by means of confocal microscopy. For this reason, the C6 chimera was evaluated in the H99 strain by staining with FUN1 and calcofluor white.
A commercial LIVE/DEAD™ yeast viability kit (Invitrogen, US) was used to analyze yeast viability after treatment with one of the chimeric peptides and FLC for 72 h at concentrations of 3.125, 6.25, 12.5, and 25 μg/mL and 4 and 8 μg/mL, respectively. In the dead control, the yeasts were treated with 5% hypochlorite for 10 min. Untreated yeast cells were used as a live control. Yeast cells were suspended in phosphate buffered saline (PBS). FUN-1 cell stains (10 μM) and calcofluor white (25 μM) were added to the yeast cell suspensions. After incubation in the dark at 30 °C for 30 min, the stained yeast was analyzed under a fluorescence microscope (Olympus FV1000) using filters set to excitation at approximately 488, 532, and 405 nm at 60× magnification. Fungal cell viability was determined by means of fluorescence analysis in at least 10 fields. Staining and interpretation of fluorescence were performed according to the manufacturer’s instructions.

[15] = test system: C. neoformans var. grubii clinical isolate 2807; experiment: microbe, parasite or virus in culture; type: cell-based, Cryptococcus neoformans var. grubii
Description: as §1

[16] = test system: C. neoformans var. grubii clinical isolate 3279; experiment: microbe, parasite or virus in culture; type: cell-based, Cryptococcus neoformans var. grubii
Description: as §1

[17] = test system: C. neoformans var. grubii H99; experiment: microbe, parasite or virus in culture; type: cell-based, Cryptococcus neoformans var. grubii
Description: as §1

[18] = test system: C. neoformans var. grubii clinical isolate 2643; experiment: microbe, parasite or virus in culture; type: cell-based, Cryptococcus neoformans var. grubii
Description: as §1

[19] = test system: C. neoformans var. grubii clinical isolate 2807; type: cell-based, Cryptococcus neoformans var. grubii; details: var. grubii clinical isolate 2807, 74 h
Description: as §2

[20] = test system: C. neoformans var. grubii H99; type: cell-based, Cryptococcus neoformans var. grubii; details: var. grubii H99, 74 h
Description: as §2

[21] = test system: normal human T lymphocytes, fibroblasts, and endothelial cells; details: LfcinB at 200 μg/mL; cited from earlier work
Excerpt: One of the main concerns about the use of antimicrobial peptides in systemic treatments is their toxicity.

[22] = var. grubii clinical isolate 2807, 72 h

Molecule: CC(C)C[C@H](NC(=O)[C@H](CC(C)C)NC(=O)[C@H](CCCCN)NC(=O)[C@H](CCCCN)NC(=O)[C@H](CC(C)C)NC(=O)[C@H](CC(C)C)NC(=O)[C@H](CCCCN)NC(=O)CCCCCNC(=O)[C@H](CCCNC(=N)N)NC(=O)[C@H](Cc1c[nH]c2ccccc12)NC(=O)[C@H](CCC(N)=O)NC(=O)[C@H](Cc1c[nH]c2ccccc12)NC(=O)[C@H](CCCNC(=N)N)NC(=O)[C@@H](N)CCCNC(=N)N)C(=O)N[C@@H](CCCCN)C(N)=O [Chimera C5] (H-RRWQWR[Ahx]KLLKKLLK-NH2)
- MIC [1]: 12.5 µg/mL (≈ 6.05 µM)
- MFC [2]: 12.5 µg/mL (≈ 6.05 µM)
- MICa (MIC of the chimeric peptide alone) [3]: 12.5 µg/mL
- MICa (MIC of the chimeric peptide alone) (C. neoformans H99): 12.5 µg/mL
- IC50 (fibroblast viability) [4]: 93.35 µg/mL (≈ 45.2 µM)

Molecule: CC(C)C[C@H](NC(=O)[C@H](CC(C)C)NC(=O)[C@H](CCCNC(=N)N)NC(=O)[C@H](CCCNC(=N)N)NC(=O)[C@H](CC(C)C)NC(=O)[C@H](CC(C)C)NC(=O)[C@H](CCCNC(=N)N)NC(=O)CCCCCNC(=O)[C@H](CCCCN)NC(=O)[C@H](Cc1c[nH]c2ccccc12)NC(=O)[C@H](CCC(N)=O)NC(=O)[C@H](Cc1c[nH]c2ccccc12)NC(=O)[C@H](CCCCN)NC(=O)[C@@H](N)CCCCN)C(=O)N[C@@H](CCCNC(=N)N)C(N)=O [Chimera C6] (H-KKWQWK[Ahx]RLLRRLLR-NH2)
- MIC [1]: 6.25 µg/mL (≈ 2.99 µM)
- MFC [2]: 6.25 µg/mL (≈ 2.99 µM)
- MICa (MIC of the chimeric peptide alone) [3]: 6.25 µg/mL
- MICa (MIC of the chimeric peptide alone) (C. neoformans H99): 6.25 µg/mL
- IC50 (fibroblast viability) [4]: 67.44 µg/mL (≈ 32.2 µM)

Molecule: OC(Cn1cncn1)(Cn1cncn1)c1ccc(F)cc1F [FLC, fluconazole]
- MIC [5]: 0.25 µg/mL (≈ 0.816 µM)
- MIC [6]: 1 µg/mL (≈ 3.27 µM)
- MIC [7]: 1 µg/mL (≈ 3.27 µM)
- MIC [8]: 2 µg/mL (≈ 6.53 µM)
- MIC [9]: 0.75 µg/mL (≈ 2.45 µM)
- MIC [10]: 1.5 µg/mL (≈ 4.9 µM)
- MIC [11]: 1 µg/mL (≈ 3.27 µM)
- MIC [12]: 1 µg/mL (≈ 3.27 µM)
- susceptibility of the strains to FLC [13]: sensitive
- MIC ([3]; Cryptococcus neoformans, clinical isolate 2807, checkerboard, 30 °C, 110 rpm, read-out: MICb (MIC of FLC alone)): 16 µg/mL
- MIC (C. neoformans H99; Cryptococcus neoformans, H99, checkerboard, 72 h, 30 °C, 110 rpm, read-out: MICb (MIC of FLC alone)): 4 µg/mL
- cell population versus live control ([14]; fluconazole 4 μg/mL (MIC)): a decrease in the cell population was observed
- cell decrease ([14]; fluconazole 8 μg/mL): > 80%
- MIC ([15]; Cryptococcus neoformans, clinical isolate 2807, broth microdilution RPMI-1640, 72 h, 30 °C, ≥50% inhibition, read-out: MIC): 16 µg/mL
- MIC ([16]; Cryptococcus neoformans, clinical isolate 3279, broth microdilution RPMI-1640, 72 h, 30 °C, ≥50% inhibition, read-out: MIC): 16 µg/mL
- MIC ([17]; Cryptococcus neoformans, H99 reference strain, broth microdilution RPMI-1640, 72 h, 30 °C, ≥50% inhibition (A595), read-out: MIC): 4 µg/mL
- susceptibility of the strain to FLC ([17]; H99 strain): sensitive
- MIC ([18]; Cryptococcus neoformans, clinical isolate 2643, broth microdilution RPMI-1640, 72 h, 30 °C, ≥50% inhibition, read-out: MIC): 8 µg/mL

Molecule: KKWQWK [[K]-LfcinB (20–25)]
- MFC [19]: 111 µM
- MFC [20]: 111 µM
- MIC [15, 22]: 111 µM
- MIC ([17]; var. grubii H99, 72 h): 111 µM

Molecule: KLLKKLLK [[K]-BFII (32–35)Pal]
- MFC [19]: 114 µM
- MFC [20]: 114 µM
- MIC [15, 22]: 114 µM
- MIC ([17]; var. grubii H99, 72 h): 114 µM

Molecule: LfcinB: bovine lactoferricin, antimicrobial peptide (FKCRRWQWRMKKLGAPSITCVRRAF; ends and bridges not checked; cysteine pairing not given here; UniProt P24627 36-60, looked up)
- toxicity for normal human cell cultures [21]: not toxic

Molecule: RLLRRLLR [BFII (32–35)Pal]
- MFC [19]: > 46 µM
- MFC [20]: > 46 µM
- MIC [15, 22]: > 46 µM
- MIC ([16]; var. grubii clinical isolate 3279, 72 h): > 46 µM
- MIC ([17]; var. grubii H99, 72 h): > 46 µM
- MIC ([18]; var. grubii clinical isolate 2643, 72 h): > 46 µM
